# According to US20260210856A1, “CONJUGATED OLIGOELECTROLYTES WITH BORON-DIPYRROMETHENE CORES AND METHODS THEREOF” (National University of Singapore, priority 2022, published 2026):
# Columns and labels:
# [1] = Photophysical properties in PBS and in SUVs (POPC:POPG 85:15); type: physicochemical
# From the text: The photophysical properties of the COE-BY series were studied in phosphate-buffered saline (PBS) and within model lipid bilayers. Small unilamellar vesicles (SUVs) composed of 1-palmitoyl-2-oleoyl-glycero-3-phosphocholine (POPC) and 1-palmitoyl-2-oleoyl-sn-glycero-3-phospho-(1′-rac-glycerol) sodium (POPG) (85:15, mol/mol) were used to simulate the lipid environment in cell membranes. The absorption spectra in PBS for all compounds feature a main peak at ~550 nm, reflecting the presence of the BODIPY subunit (FIG. 9A). One also observes a 5-10 nm red-shift of lowest energy absorption peak with increasing electron-withdrawing strength of the phenyl substituents.
# Upon inserting into lipid bilayers, the fluorescence intensity increases over 27-fold for COE-BYPhMe, 30-fold for COE-BYPhOC4, 35-fold for COE-BYPhCN and 40-fold for COE-BYPhNO, relative to the values measured in PBS (FIG. 1c and FIG. S5). The increase in emission intensity reflects a transition to a more rigid and hydrophobic environment. Quantum yields increase to 32% for COE-BYPhMe, 60% for COE-BYPhOC4, 13% for COE-BYPhCN, and 10% for COE-BYPhNO in SUVs from 1% for COE-BYPhMe, 3% for COE-BYPhOC4, and 0.5% for COE-BYPhCN in PBS. The QY of COE-BYPhNO in PBS cannot be accurately determined by using a conventional fluorometer due to its weak fluorescence. The maximum emission wavelengths are redshifted from 587/589 nm (COE-BYPhMe/OC4) to 605/611 nm (COE-BYPhCN/NO) as a result of the decreased HOMO-LUMO energy gaps. […] Furthermore, the fluorescence spectra of COE-BYs intercalated within SUVs show a narrow band at wavelengths between 587 nm and 611 nm, with a full width half maximum (FWHM) linewidth of 52-68 nm (Table 1).
# [2] = Two-photon absorption cross section; type: physicochemical; conditions: intercalated into SUVs
# From the text: Dynamic biological processes in live cells often take place at a rapid time scale, necessitating rapid image acquisition. For 2P-FLIM applications, this is especially relevant since a significant photon count is required to ensure accurate decay statistics and lifetime values. Two-photon imaging provides access to the NIR-II window for excitation (1000-1700 nm), minimizing photodamage and eliminating out of focus noise. As such, dye brightness plays a key role in enabling high-quality imaging. We thus evaluated their two-photon absorption cross-section of the COE-BY series. […] These properties will become relevant when determining the utility of COE-BYPhOC4 to image the endocytosis pathway and different response of living cells.
# HeLa cells [3] = test: Brightness of stained HeLa cells by flow cytometry; type: cell-based; conditions: FIG. 11
# From the text: To evaluate their potential use as fluorescent probes for intracellular imaging, we first analyzed the brightness of each COE-BY molecule when used to stain HeLa cells using flow cytometry. As flow cytometry reports the fluorescence intensity per cell, this analysis would enable simultaneous evaluation of the cellular uptake and brightness. […] Based on these parameters, COE-BYPhOC4 was chosen for further in vitro imaging studies.
# [4] = FLIM of stained GUVs with varying compositions; type: physicochemical; conditions: 1 μM
# From the text: FLIM is a time-resolved method used to obtain information on the emission decay of a fluorophore in different cellular environments. Being independent of parameters such as local dye concentration, absorption profile, and excitation intensity, FLIM is sensitive to changes in the fluorophore itself relative to intensity-based measurements. Accordingly, we first used GUV model systems with a well-defined composition to measure the lifetime of the probe in environments of known lipid packing. For this purpose, use used compositions of, in order of increased membrane tension, DOPC, DOPC with cholesterol (Chol), sphyngomyelin (SM) and SM with Chol. This series of GUVs allows us to examine to what extent τw of intercalated COE-BYPhOC4 is responsive to different levels of membrane tension.
# GUVs were thus first stained with 1 μM COE-BYPhOC4 and were imaged via conventional FLIM. […] All the lifetimes measured are predominantly described by a mono-exponential fit. […]
# HeLa cells [5] = test: Membrane tension imaging during endocytosis, 2P-FLIM; type: cell-based
# Protocol: We thus stained HeLa cells with COE-BYPhOC4 for different lengths of time and captured 2P-FLIM images of the cell state at specific intervals. For these studies, we correlated the time-dependent colocalization experiments with 2P-FLIM data to link τw with the identity of the vesicles. […] Time dependent colocalization with Rab5a allowed us a means of assigning the identities of the vesicles. At 2 hours, the blue and green vesicles in FLIM image were identified as early endosomes. Upon increasing staining time to 4 h, all COE-BYPhOC4 entered the cells with a further increase in τw, leading to a main yellow color. […] As previously analyzed from the colocalization images in FIG. 12, all the COEs resided exclusively within late endosomes at this point in time. […] This observation is potentially reflective of the different domains in endosomes.
compound,measurement,setting,value
CCCCOc1ccc(C2=C3C(C)=C(c4ccc(/C=C/c5cc(OCCCCCC[N+](C)(C)C)c(OCCCCCC[N+](C)(C)C)c(OCCCCCC[N+](C)(C)C)c5)cc4)C(C)=[N+]3[B-](F)(F)n3c(C)c(-c4ccc(/C=C/c5cc(OCCCCCC[N+](C)(C)C)c(OCCCCCC[N+](C)(C)C)c(OCCCCCC[N+](C)(C)C)c5)cc4)c(C)c32)cc1.[I-].[I-].[I-].[I-].[I-].[I-] [COE-BYPhOC4],FWHM,"[1]; fluorescence spectra, intercalated within SUVs",56 nm
same,ΦF in PBS,[1]; in PBS,3%
same,λabs,[1]; in PBS,540 nm
same,λem in PBS,[1]; in PBS,602 nm
same,ΦF in SUVs,[1]; in SUVs,60%
same,λem in SUVs,[1]; in SUVs,589 nm
same,fluorescence intensity increase upon inserting into lipid bilayers,[1]; relative to the values measured in PBS,> 30 fold
same,two photon absorption cross section area,[2],486 GM
same,brightness of stained cells,HeLa cells [3],highest brightness
same,τw,[4]; DOPC GUVs,1.6±0.2 ns
same,τw,[4]; SM/Chol vesicles,2.8±0.3 ns
same,τw,"HeLa cells [5]; 8 to 24 h, red-orange vesicles",2.7-3.0 ns
same,τw,"HeLa cells [5]; 0.5 h, plasma membranes",≈ 1.5 ns
same,τw,"HeLa cells [5]; 0.5 h, regions beginning to be internalized",≈ 1.0 ns
same,τw,HeLa cells [5]; vesicles taken up earlier (green),2.0-2.4 ns
